Measurements as given in patent US20240218346A1, “PHOSPHOKETOLASE VARIANTS AND METHODS OF USE” (Genomatica, Inc., priority 2021, published 2024).

T1: Bifidobacterium adolescentis fructose-6-phosphate phosphoketolase (H2), wild type, SEQ ID NO: 1 (Bifidobacterium adolescentis, UniProt A1A185)
T1 sequence (A1A185 with tags, fused parts or gaps): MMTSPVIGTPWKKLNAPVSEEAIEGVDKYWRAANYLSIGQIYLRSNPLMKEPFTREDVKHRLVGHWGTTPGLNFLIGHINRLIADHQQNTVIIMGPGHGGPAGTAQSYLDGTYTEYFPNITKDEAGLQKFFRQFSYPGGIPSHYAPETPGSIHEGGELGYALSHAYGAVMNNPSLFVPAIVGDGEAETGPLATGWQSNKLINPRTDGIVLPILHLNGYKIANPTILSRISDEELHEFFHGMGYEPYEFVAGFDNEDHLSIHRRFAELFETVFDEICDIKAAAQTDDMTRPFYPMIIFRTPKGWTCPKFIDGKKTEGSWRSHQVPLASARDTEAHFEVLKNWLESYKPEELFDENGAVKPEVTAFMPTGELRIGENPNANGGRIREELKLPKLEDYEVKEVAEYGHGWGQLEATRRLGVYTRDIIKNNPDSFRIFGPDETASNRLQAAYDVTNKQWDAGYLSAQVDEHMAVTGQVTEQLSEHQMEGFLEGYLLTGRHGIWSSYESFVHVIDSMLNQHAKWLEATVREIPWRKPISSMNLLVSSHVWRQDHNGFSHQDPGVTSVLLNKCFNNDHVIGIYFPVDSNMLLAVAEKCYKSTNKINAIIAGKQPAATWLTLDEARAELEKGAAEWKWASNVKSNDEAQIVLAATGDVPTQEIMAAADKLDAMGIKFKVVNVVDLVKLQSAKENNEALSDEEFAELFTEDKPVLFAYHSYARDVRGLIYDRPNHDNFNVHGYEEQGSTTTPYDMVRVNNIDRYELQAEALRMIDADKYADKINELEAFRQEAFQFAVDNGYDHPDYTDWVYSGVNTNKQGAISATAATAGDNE


Assays:
[1] = tested on: Collinsella aerofaciens xylulose-5-phosphate/fructose-6-phosphate phosphoketolase (D3), wild type, SEQ ID NO: 2; test: Kinetics, Hydroxymate based colorimetric assay for FPK activity (F6P); assay type: biochemical
Source text: Mutagenesis techniques were used to generate engineered phosphoketolases based on one of two template phosphoketolases (the fructose-6-phosphate phosphoketolase from Bifidobacterium adolescentis (strain ATCC 15703 DSM 20083 NCTC 11814 E194a) (“H2”; UniProtKB Accession No. A1A185_BIFAA; SEQ ID NOs: 1 and 3) orthe xylulose-5-phosphate/fructose-6-phosphate phosphoketolase from Collinsella aerofaciens (“D3”; UniProt KB Accession No. A0A174LGR4_9ACTN; SEQ ID NOs: 2 and 4)). Engineered phosphoketolase were generated using rational protein engineering. Structural homology models were constructed for H2 and D3. The substrate docking with Xu5P and F6P were also performed. In total, 2000 variants were designed. […]
(§1) Further biochemical characterization of selected variants was conducted and the FPK activity of these variants were assessed. […] The kinetics parameters measured during biochemical characterization are summarized below in Table 5. […]
The product of FPK is coupled to ferric-hydroxamate complex production via hydroxamate reactions of its product with hydroxylamine and ferric chloride. Ferric-hydroxamate complex production was measured by absorbance at 520 nm. […]
Cell lysate preparation was the same described as above. […] The reaction was incubated at room temperature for 10 minutes and then sent to the plate reader for absorption at 520 nm.

[2] = tested on: Collinsella aerofaciens xylulose-5-phosphate/fructose-6-phosphate phosphoketolase (D3), wild type, SEQ ID NO: 2; test: Kinetics, E4PDH based colorimetric assay for FPK activity (F6P); assay type: biochemical
Source text: Mutagenesis techniques were used to generate engineered phosphoketolases based on one of two template phosphoketolases (the fructose-6-phosphate phosphoketolase from Bifidobacterium adolescentis (strain ATCC 15703 DSM 20083 NCTC 11814 E194a) (“H2”; UniProtKB Accession No. A1A185_BIFAA; SEQ ID NOs: 1 and 3) orthe xylulose-5-phosphate/fructose-6-phosphate phosphoketolase from Collinsella aerofaciens (“D3”; UniProt KB Accession No. A0A174LGR4_9ACTN; SEQ ID NOs: 2 and 4)). Engineered phosphoketolase were generated using rational protein engineering. Structural homology models were constructed for H2 and D3. The substrate docking with Xu5P and F6P were also performed. In total, 2000 variants were designed. There are 1031 constructs designed based on H2, and 969 based on D3. 1999 constructs were received from DNA synthesis. […]
as §1
The product of FPK is coupled to NADH production via a one-step enzymatic reaction of its product with E4PDH. NADH production overtime was measured by absorbance at 340 nm. […]
5 μL of half diluted cell lysate was added into 45 μL of reaction buffer. […] The reaction was recorded for a 10-min kinetics reading at 340 nm at room temperature.

[3] = molecular target: T1, Bifidobacterium adolescentis fructose-6-phosphate phosphoketolase (H2), wild type, SEQ ID NO: 1; test: Kinetics, Hydroxymate based colorimetric assay for FPK activity (F6P); assay type: biochemical
Method: Further biochemical characterization of selected variants was conducted and the FPK activity of these variants were assessed. […] The FPK kinetics assay was based on the E4PDH based Colorimetric Assay described herein for the 12 hits and the two controls (SEQ ID NO: 1 and SEQ ID NO: 2).
The product of FPK is coupled to ferric-hydroxamate complex production via hydroxamate reactions of its product with hydroxylamine and ferric chloride. Ferric-hydroxamate complex production was measured by absorbance at 520 nm. This is an end-point assay.
Cell lysate preparation was the same described as above. One typical reaction contained 7.5 uL lysate and 67.5 μL reaction buffer. Reaction buffer contained 1 mM of NADH and 5 mM of F6P substrate for primary screening. 2 mM of F6P was used in secondary screening in reaction buffer 1. The reaction in a plate was incubated at room temperature for 30 minutes. After the 30-min incubation, 25 μL of 2 M hydroxylamine in Tris-HCl solution was added into one reaction to initiate the hydroxamate reaction. The reaction was incubated at room temperature for 10 minutes and then sent to the plate reader for absorption at 520 nm.

[4] = molecular target: T1, Bifidobacterium adolescentis fructose-6-phosphate phosphoketolase (H2), wild type, SEQ ID NO: 1; test: Kinetics, E4PDH based colorimetric assay for FPK activity (F6P); assay type: biochemical
[5] = substrate: O=P(O)(O)OC[C@H]1OC(O)(CO)[C@@H](O)[C@@H]1O; test: as above; assay type: biochemical, Bifidobacterium adolescentis; conditions: other: F6P
Source text: Mutagenesis techniques were used to generate engineered phosphoketolases based on one of two template phosphoketolases (the fructose-6-phosphate phosphoketolase from Bifidobacterium adolescentis (strain ATCC 15703 DSM 20083 NCTC 11814 E194a) (“H2”; UniProtKB Accession No. A1A185_BIFAA; SEQ ID NOs: 1 and 3) orthe xylulose-5-phosphate/fructose-6-phosphate phosphoketolase from Collinsella aerofaciens (“D3”; UniProt KB Accession No. A0A174LGR4_9ACTN; SEQ ID NOs: 2 and 4)). Engineered phosphoketolase were generated using rational protein engineering. Structural homology models were constructed for H2 and D3. The substrate docking with Xu5P and F6P were also performed. In total, 2000 variants were designed. There are 1031 constructs designed based on H2, and 969 based on D3. 1999 constructs were received from DNA synthesis. The variants were then tested for XPK and/or FPK activity in in vitro primary and secondary screens as described below.
Further biochemical characterization of selected variants was conducted and the FPK activity of these variants were assessed. 12 hits were selected from the secondary screening results of the phosphoketolase library screen for in vitro biochemical characterization. All 12 of the hits selected are variants based on SEQ ID NO: 1. The kinetics parameters measured during biochemical characterization are summarized below in Table 5. The FPK kinetics assay was based on the E4PDH based Colorimetric Assay described herein for the 12 hits and the two controls (SEQ ID NO: 1 and SEQ ID NO: 2).
The product of FPK is coupled to NADH production via a one-step enzymatic reaction of its product with E4PDH. NADH production overtime was measured by absorbance at 340 nm. The reactions are listed below.
5 μL of half diluted cell lysate was added into 45 μL of reaction buffer. The reaction buffer contained an approximate amount of E4PDH enzyme, 1 mM NADH and 5 mM F6P as substrate for primary screening. 2 mM F6P was used for secondary screening. The reaction was recorded for a 10-min kinetics reading at 340 nm at room temperature.

Km [1] [mM] | kcat [1] [s⁻¹] | Km [2] [mM] | kcat [2] [s⁻¹] | Km [3] [mM] | kcat [3] [s⁻¹] | Km [4] [mM] | kcat [4] [s⁻¹] | Molecule | Km [5] [mM] | kcat [5] [s⁻¹] | kcat/Km [5] [M⁻¹ s⁻¹]
9.31 | 19.57 | 27.9 | 7.824 | 1.04 | 5.933 | 4.89 | 30.07 | O=P(O)(O)OC[C@H]1OC(O)(CO)[C@@H](O)[C@@H]1O (stereo partly drawn) [F6P, D-fructose-6-phosphate] |  |  | 
 |  |  |  |  |  |  |  | Bifidobacterium adolescentis fructose-6-phosphate phosphoketolase (H2, SEQ ID NO: 1) variant S504A (Bifidobacterium adolescentis ATCC 15703; S503A) (protein) MMTSPVIGTPWKKLNAPVSEEAIEGVDKYWRAANYLSIGQIYLRSNPLMKEPFTREDVKHRLVGHWGTTPGLNFLIGHINRLIADHQQNTVIIMGPGHGGPAGTAQSYLDGTYTEYFPNITKDEAGLQKFFRQFSYPGGIPSHYAPETPGSIHEGGELGYALSHAYGAVMNNPSLFVPAIVGDGEAETGPLATGWQSNKLINPRTDGIVLPILHLNGYKIANPTILSRISDEELHEFFHGMGYEPYEFVAGFDNEDHLSIHRRFAELFETVFDEICDIKAAAQTDDMTRPFYPMIIFRTPKGWTCPKFIDGKKTEGSWRSHQVPLASARDTEAHFEVLKNWLESYKPEELFDENGAVKPEVTAFMPTGELRIGENPNANGGRIREELKLPKLEDYEVKEVAEYGHGWGQLEATRRLGVYTRDIIKNNPDSFRIFGPDETASNRLQAAYDVTNKQWDAGYLSAQVDEHMAVTGQVTEQLSEHQMEGFLEGYLLTGRHGIWSSYEAFVHVIDSMLNQHAKWLEATVREIPWRKPISSMNLLVSSHVWRQDHNGFSHQDPGVTSVLLNKCFNNDHVIGIYFPVDSNMLLAVAEKCYKSTNKINAIIAGKQPAATWLTLDEARAELEKGAAEWKWASNVKSNDEAQIVLAATGDVPTQEIMAAADKLDAMGIKFKVVNVVDLVKLQSAKENNEALSDEEFAELFTEDKPVLFAYHSYARDVRGLIYDRPNHDNFNVHGYEEQGSTTTPYDMVRVNNIDRYELQAEALRMIDADKYADKINELEAFRQEAFQFAVDNGYDHPDYTDWVYSGVNTNKQGAISATAATAGDNE | 3.347 | 26.3 | 7850
 |  |  |  |  |  |  |  | Bifidobacterium adolescentis fructose-6-phosphate phosphoketolase (H2, SEQ ID NO: 1) variant Y799I (Bifidobacterium adolescentis ATCC 15703; Y798I) (protein) MMTSPVIGTPWKKLNAPVSEEAIEGVDKYWRAANYLSIGQIYLRSNPLMKEPFTREDVKHRLVGHWGTTPGLNFLIGHINRLIADHQQNTVIIMGPGHGGPAGTAQSYLDGTYTEYFPNITKDEAGLQKFFRQFSYPGGIPSHYAPETPGSIHEGGELGYALSHAYGAVMNNPSLFVPAIVGDGEAETGPLATGWQSNKLINPRTDGIVLPILHLNGYKIANPTILSRISDEELHEFFHGMGYEPYEFVAGFDNEDHLSIHRRFAELFETVFDEICDIKAAAQTDDMTRPFYPMIIFRTPKGWTCPKFIDGKKTEGSWRSHQVPLASARDTEAHFEVLKNWLESYKPEELFDENGAVKPEVTAFMPTGELRIGENPNANGGRIREELKLPKLEDYEVKEVAEYGHGWGQLEATRRLGVYTRDIIKNNPDSFRIFGPDETASNRLQAAYDVTNKQWDAGYLSAQVDEHMAVTGQVTEQLSEHQMEGFLEGYLLTGRHGIWSSYESFVHVIDSMLNQHAKWLEATVREIPWRKPISSMNLLVSSHVWRQDHNGFSHQDPGVTSVLLNKCFNNDHVIGIYFPVDSNMLLAVAEKCYKSTNKINAIIAGKQPAATWLTLDEARAELEKGAAEWKWASNVKSNDEAQIVLAATGDVPTQEIMAAADKLDAMGIKFKVVNVVDLVKLQSAKENNEALSDEEFAELFTEDKPVLFAYHSYARDVRGLIYDRPNHDNFNVHGYEEQGSTTTPYDMVRVNNIDRYELQAEALRMIDADKYADKINELEAFRQEAFQFAVDNGYDHPDITDWVYSGVNTNKQGAISATAATAGDNE | 4.53 | 33.6 | 7430
